Test [1] has as its system DIO-NASH mice. The test can be described thus: Oral glucose tolerance test (OGTT). In kind it is in vivo, male C57BL/6 mice. The settings on record: alone or combined, PO QD, DIO-NASH vehicle 1762 ± 45. The procedure:
Blood samples were collected into 10 μL heparinized glass capillary tubes. The sample was immediately suspended in buffer (0.5 ml of glucose/lactate system solution (EKF-diagnostics, Germany) and analyzed for glucose on the test day using a BIOSEN c-Line glucose meter (EKF-diagnostics, Germany). For triglyceride and cholesterol content, 100 μl blood was collected into Lithium-Heparin tubes. Plasma was separated and samples were stored at 4° C. for one day prior to analysis.
In week 4 (LIRA and MET combinations) or week 6 (SIT combination) of treatment, an OGTT was performed in conscious free-moving animals. […] Animals were fasted for 4 h prior to test start (food removal from 6 AM to 10 AM). At t=0, mice received an oral bolus of glucose (2 g/kg) (200 mg/ml; Fresenius Kabi, Sweden) by oral gavage (10 ml/kg). Blood samples were collected from the tail vein (by snipping) and blood glucose was measured at time point 0, 15, 30, 60 and 120 minutes after the oral glucose administration. Mice were re-fed after the blood sampling and drug dosed as per usual.

In test [2] the test system is HFD-induced rabbit model of MetS. To be noted: cited from earlier work.
Where [3] appears, read: high dose: OCA 30 mg/kg, MET 150 mg/kg.
Where [4] appears, read: low dose: OCA 10 mg/kg, MET 50 mg/kg.
The mark [5] stands for this setting: HFD rabbits, in vivo OCA dosing.

As to `CN(C)C(=N)N=C(N)N` [MET, metformin, reference compound], the “OGTT Blood Glucose AUC, Week 4” value in test [1] (setting [3]) came out at 1480 ± 53 mmol·min/L; in test [1] (setting [4]), 1698 ± 31 mmol·min/L.
Turning to `CC[C@H]1[C@@H](O)[C@@H]2[C@H](CC[C@]3(C)[C@@H]([C@H](C)CCC(=O)O)CC[C@@H]23)[C@@]2(C)CC[C@@H](O)C[C@@H]12` [OCA, 3α,7α-dihydroxy-6α-ethyl-5β-cholan-24-oic acid], the “OGTT Blood Glucose AUC, Week 4” value in test [1] (setting [3]) came to 1778 ± 88 mmol·min/L. In addition, the “OGTT Blood Glucose AUC, Week 4” value in test [1] (setting [4]) amounted to 1680 ± 71 mmol·min/L. Moreover, in test [2] (HFD rabbits vs rabbits on a control diet, immunohistochemistry, Western blot, RT-PCR), the “adipocyte size, hypoxia, and expression of perilipin and GLUT4 (SLC2A4) in VAT” value was “normalizes”. Further, in test [2] (setting [5]), the “amount of visceral AT (VAT)” value is reported as “marked reduction”; the “expression of steatosis and inflammation markers” value was “normalizes”; the “insulin resistance and metabolic profile” value was “ameliorates insulin resistance and the metabolic profile”.
